# US10329282B2, “Rho-associated protein kinase inhibitor, pharmaceutical composition comprising the same, as well as preparation method and use thereof” (Beijing Tide Pharmaceutical Co., Ltd., priority 2017, dated 2019)
# Biological target: ROCK2 (Homo sapiens (Human), UniProt O75116)
# Test: ROCK2 kinase IC50 assay (CISBIO HTRF KinEASE-STK S2 kit)
# Type: biochemical
# Settings: ROCK2 from Carna Biosciences, 2 h incubation at room temperature
# Description: The kinase IC50 was determined by a commercialized CISBIO kinase detection kit, HTRF KinEASE-STK S2 kit (62ST2PEC). ROCK2 (01-119) employed in the reaction was purchased from Carna Biosciences.
# Before the assay, the following working solutions as needed were formulated with corresponding reagents according to the instruction of the kinase detection kit: 1×kinase buffer, 5×STK-52 substrate working solution (1.5 μM) and 5×ATP working solution (1.5 μM), 5×ROCK2 kinase working solution, 4×Streptavidin-XL665 working solution, and 4×STK-Ab-Cryptate 2 detection solution. Then the assay was performed according to the following procedure.
# A solution of a compound at a concentration of 10000 nM was prepared with the 1×kinase buffer containing 2.5% DMSO. Gradient dilution of the solution of the compound was performed with the kinase buffer containing DMSO, so as to obtain solutions of a test compound at 9 different concentrations. In addition to wells of test compounds, a positive well (containing all the reagents except the compound) and a negative well (containing all the reagents except the test compound and kinase) were set. Except for the control wells (positive and negative wells), a solution of a test compound (4 μL) was added to each of the reaction wells, and a solution of 2.5% DMSO was added to the control wells. Then the substrate (2 μM, i.e., 2 μL 5×STK-S2 substrate working solution) was added to each of the reaction wells. The 5×ROCK2 kinase working solution (2 μL, containing 1.4 ng ROCK2 kinase) was added to each of the reaction wells except for the negative well, the volume of which was made up with the 1×kinase buffer (2 μL). The 5×ATP working solution (2 μL) was added to each of the reaction wells, and the mixtures were incubated at room temperature for 2 hours. After the kinase reaction was complete, the 4×Streptavidin-XL665 working solution was added to each of the reaction wells, the solutions were mixed, followed by immediate addition of the 4×STK-Ab-Cryptate 2 detection solution (5 μL), and the mixtures were incubated at room temperature for 1 hour. The fluorescence signal was read on ENVISION (Perkinelmer) (excitation wavelength: 320 nm, and emission wavelength: 665 nm and 615 nm). The inhibitory rate in each well was calculated based on the fluorescence intensity value: ER (Emission Ratio)=(fluorescence intensity at 665 nm/fluorescence intensity at 615 nm); inhibitory rate=(ERpositive−ERtest compound) (ERpositive−ERnegative)*100%. Curves were plotted and fitted to obtain the median inhibitory concentration (IC50) of each teat compound with the PRISM 5.0 software.
# ROCK2, sequence (O75116 1-553): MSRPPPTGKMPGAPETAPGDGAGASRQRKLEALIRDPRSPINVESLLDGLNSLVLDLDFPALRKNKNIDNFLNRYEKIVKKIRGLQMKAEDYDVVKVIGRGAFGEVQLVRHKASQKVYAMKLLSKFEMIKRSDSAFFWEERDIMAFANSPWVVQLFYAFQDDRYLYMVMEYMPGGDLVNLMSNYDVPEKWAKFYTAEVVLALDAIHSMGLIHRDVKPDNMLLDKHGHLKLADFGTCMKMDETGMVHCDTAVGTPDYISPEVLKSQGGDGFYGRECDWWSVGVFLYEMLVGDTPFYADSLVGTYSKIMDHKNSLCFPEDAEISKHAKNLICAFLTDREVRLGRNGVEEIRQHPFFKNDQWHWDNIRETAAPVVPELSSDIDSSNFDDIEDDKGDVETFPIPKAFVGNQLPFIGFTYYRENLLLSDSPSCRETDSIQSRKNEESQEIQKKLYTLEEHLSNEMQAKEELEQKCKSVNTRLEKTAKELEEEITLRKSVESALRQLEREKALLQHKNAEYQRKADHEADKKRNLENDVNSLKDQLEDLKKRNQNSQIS
row,Structure (SMILES),IC50 [nM]
1,"CC(C)(C)OC(=O)n1cc(NC(=O)c2cc3ccc(-c4nccc(Nc5ccc6[nH]ncc6c5)n4)cc3[nH]2)cn1 [TDI01200, tert-butyl 4-(6-(4-((1H-indazol-5-yl)amino)pyrimidin-2-yl)-1H-indole-2-carboxamido)-1H-pyrazole-1-carboxylate]",23
2,CN(CCC#N)C(=O)c1cc2ccc(-c3nccc(Nc4ccc(-c5cn[nH]c5)cc4)n3)cc2[nH]1 [TDI01442],305
3,"O=C(Nc1ccncc1)c1cc2ccc(-c3nccc(Nc4ccc(-c5cn[nH]c5)cc4)n3)cc2[nH]1 [TDI01363, 6-(4-((4-(1H-pyrazol-4-yl)phenyl)amino)pyrimidin-2-yl)-N-(pyridin-4-yl)-1H-indole-2-carboxamide]",104
4,"O=C(c1cc2ccc(-c3nccc(Nc4ccc(-c5cn[nH]c5)cc4)n3)cc2[nH]1)N1CCOCC1 [TDI01331, (6-(4-((4-(1H-pyrazol-4-yl)phenyl)amino)pyrimidin-2-yl)-1H-indol-2-yl)(morpholino)methanone]",260
5,"O=C(Nc1cnc2[nH]ccc2c1)c1cc2ccc(-c3nccc(Nc4ccc5[nH]ncc5c4)n3)cc2[nH]1 [TDI01258, 6-(4-((1H-indazol-5-yl)amino)pyrimidin-2-yl)-N-(1H-pyrrolo[2,3-b]pyridin-5-yl)-1H-indole-2-carboxamide]",62
6,"O=C(Nc1cn[nH]c1)c1cc2ccc(-c3nccc(Nc4ccc5[nH]ncc5c4)n3)cc2[nH]1 [TDI01199, 6-(4-((1H-indazol-5-yl)amino)pyrimidin-2-yl)-N-(1H-pyrazol-4-yl)-1H-indole-2-carboxamide]",30
7,"CN(C)C(=O)N1Cc2ccc(-c3nccc(Nc4ccc(-c5cn[nH]c5)cc4)n3)cc2C1 [TDI01366, 5-(4-((4-(1H-pyrazol-4-yl)phenyl)amino)pyrimidin-2-yl)-N,N-dimethylisoindoline-2-carboxamide]",260
8,"CC(C)OC(=O)c1cc2ccc(-c3nccc(Nc4ccc(-c5cn[nH]c5)cc4)n3)cc2[nH]1 [TDI01299, isopropyl 6-(4-((4-(1H-pyrazol-4-yl)phenyl)amino)pyrimidin-2-yl)-1H-indole-2-carboxylate]",463
9,"CN(C)C(=O)c1cc2ccc(-c3nccc(Nc4ccc(-c5cn[nH]c5)cc4)n3)cc2[nH]1 [TDI01294, 6-(4-((4-(1H-pyrazol-4-yl)phenyl)amino)pyrimidin-2-yl)-N,N-dimethyl-1H-indole-2-carboxamide]",352
10,"CC(C)NC(=O)c1cc2ccc(-c3nc(Nc4ccc5[nH]ncc5c4)c4ccccc4n3)cc2[nH]1 [TDI01128, 6-(4-((1H-indazol-5-yl)amino)quinazolin-2-yl)-N-isopropyl-1H-indole-2-carboxamide]",145
11,"N#CC1CN(C(=O)c2cc3ccc(-c4nccc(Nc5ccc(-c6cn[nH]c6)cc5)n4)cc3[nH]2)C1 [TDI01398, 1-(6-(4-((4-(1H-pyrazol-4-yl)phenyl)amino)pyrimidin-2-yl)-1H-indole-2-carbonyl)azetidine-3-carbonitrile]",16
12,"O=C(NC1CC1)c1cc2ccc(-c3nccc(Nc4ccc5[nH]ncc5c4)n3)cc2[nH]1 [TDI01151, 6-(4-((1H-indazol-5-yl)amino)pyrimidin-2-yl)-N-cyclopropyl-1H-indole-2-carboxamide]",45
13,"CC(C)NC(=O)c1cc2ccc(-c3nc(Nc4ccc5[nH]ncc5c4)c4ccn(CCN(C)C)c4n3)cc2s1 [TDI01122, 6-(4-((1H-indazol-5-yl)amino)-7-(2-(dimethylamino)ethyl)-7H-pyrrolo[2,3-d]pyrimidin-2-yl)-N-isopropylbenzo[b]thiophene-2-carboxamide]",219
14,"CN(C(=O)c1cc2ccc(-c3nccc(Nc4ccc(-c5cn[nH]c5)cc4)n3)cc2[nH]1)c1ccncc1 [TDI01421, 6-(4-((4-(1H-pyrazol-4-yl)phenyl)amino)pyrimidin-2-yl)-N-methyl-N-(pyridin-4-yl)-1H-indole-2-carboxamide]",289
15,"C[C@@H](NC(=O)c1cc2ccc(-c3nccc(Nc4ccc(-c5cn[nH]c5)cc4)n3)cc2[nH]1)c1ccncc1 [TDI01849B, (R)-6-(4-((4-(1H-pyrazol-4-yl)phenyl)amino)pyrimidin-2-yl)-N-(1-(pyridin-4-yl)ethyl)-1H-indole-2-carboxamide]",210
16,"O=C(Nc1cccnc1)c1cc2ccc(-c3nccc(Nc4ccc(-c5cn[nH]c5)cc4)n3)cc2[nH]1 [TDI01397, 6-(4-((4-(1H-pyrazol-4-yl)phenyl)amino)pyrimidin-2-yl)-N-(pyridin-3-yl)-1H-indole-2-carboxamide]",120

row,Structure (SMILES),IC50 [nM]
1,"CC(C)NC(=O)c1cc2ccc(-c3nc(Nc4ccc5[nH]ncc5c4)c4occc4n3)cc2s1 [TDI01135, 6-(4-((1H-indazol-5-yl)amino)furo[3,2-d]pyrimidin-2-yl)-N-isopropylbenzo[b]thiophene-2-carboxamide]",123
2,"CC(C)NC(=O)c1cc2ccc(-c3nc(Nc4ccc5[nH]ncc5c4)c4sccc4n3)cc2s1 [TDI01136, 6-(4-((1H-indazol-5-yl)amino)thieno[3,2-d]pyrimidin-2-yl)-N-isopropylbenzo[b]thiophene-2-carboxamide]",66
3,"O=C(c1cc2ccc(-c3nccc(Nc4ccc(-c5cn[nH]c5)cc4)n3)cc2[nH]1)N1CCO[C@@H](CO)C1 [TDI01852, (R)-(6-(4-((4-(1H-pyrazol-4-yl)phenyl)amino)pyrimidin-2-yl)-1H-indel-2-yl)(2-(hydroxymethyl)morpholino)methanone]",482
4,"CNC(=O)c1cc2ccc(-c3nccc(Nc4ccc5[nH]ncc5c4)n3)cc2s1 [TDI01109, 6-(4-((1H-indazol-5-yl)amino)pyrimidin-2-yl)-N-methylbenzo[b]thiophene-2-carboxamide]",447
5,CCNC(=O)c1cc2cc(-c3nccc(Nc4ccc(-c5cn[nH]c5)cc4)n3)ccc2[nH]1 [TDI01408],400
6,"CC(C)NC(=O)c1cc2ccc(-c3nccc(Nc4ccc5[nH]ncc5c4)n3)cc2[nH]1 [TDI01108, 6-(4-((1H-indazol-5-yl)amino)pyrimidin-2-yl)-N-isopropyl-1H-indole-2-carboxamide]",22
7,"CC(C)NC(=O)c1cc2ccc(-c3nc(Nc4ccc5[nH]ncc5c4)c4cc[nH]c4n3)cc2[nH]1 [TDI01143, 6-(4-((1H-indazol-5-yl)amino)-7H-pyrrolo[2,3-d]pyrimidin-2-yl)-N-isopropyl-1H-indole-2-carboxamide]",72
8,"CN1CCC(n2cc(NC(=O)c3cc4ccc(-c5nccc(Nc6ccc7[nH]ncc7c6)n5)cc4[nH]3)cn2)CC1 [TDI01316, 6-(4-((1H-indazol-5-yl)amino)pyrimidin-2-yl)-N-(1-(1-methylpiperidin-4-yl)-1H-pyrazol-4-yl)-1H-indole-2-carboxamide]",87
9,"CN(C(=O)c1cc2ccc(-c3nccc(Nc4ccc(-c5cn[nH]c5)cc4)n3)cc2[nH]1)C1COC1 [TDI01344, 6-(4-((4-(1H-pyrazol-4-yl)phenyl)amino)pyrimidin-2-yl)-N-methyl-N-(oxetan-3-yl)-1H-indole-2-carboxamide]",97
10,"O=C(NC1CC1)c1cc2ccc(-c3nccc(Nc4ccc(-c5cn[nH]c5)cc4)n3)cc2[nH]1 [TDI01324, 6-(4-((4-(1H-pyrazol-4-yl)phenyl)amino)pyrimidin-2-yl)-N-cyclopropyl-1H-indole-2-carboxamide]",101
11,"CC(C)NC(=O)c1cc2ccc(-c3nc(Nc4ccc5[nH]ncc5c4)c4ccsc4n3)cc2[nH]1 [TDI01142, 6-(4-((1H-indazol-5-yl)amino)thieno[2,3-d]pyrimidin-2-yl)-N-isopropyl-1H-indole-2-carboxamide]",225
12,"CC(C)NC(=O)C1Cc2ccc(-c3nccc(Nc4ccc5[nH]ncc5c4)n3)cc2N1 (centres unmarked) [TDI01292, 6-(4-((1H-indazol-5-yl)amino)pyrimidin-2-yl)-N-isopropylindoline-2-carboxamide]",242
13,O=C(c1cc2ccc(-c3nccc(Nc4ccc(-c5cn[nH]c5)cc4)n3)cc2[nH]1)N1CC(C(F)F)C1 [TDI01435],28
14,"CC(C)NC(=O)C1COc2ccc(-c3nccc(Nc4ccc5[nH]ncc5c4)n3)cc2O1 (centres unmarked) [TDI01103, 7-(4-((1H-indazol-5-yl)amino)pyrimidin-2-yl)-N-isopropyl-2,3-dihydrobenzo[b][1,4]dioxine-2-carboxamide]",167
15,O=C(c1cc2ccc(-c3nccc(Nc4ccc(-c5cn[nH]c5)cc4)n3)cc2[nH]1)N1CC(C(F)(F)F)C1 [TDI01433],13
16,"CNC(=O)c1cc2ccc(-c3nccc(Nc4ccc(-c5cn[nH]c5)cc4)n3)cc2[nH]1 [TDI01296, 6-(4-((4-(1H-pyrazol-4-yl)phenyl)amino)pyrimidin-2-yl)-N-methyl-1H-indole-2-carboxamide]",211
